Results reported in patent US10308615B2, “Heterocyclic compounds as inhibitors of Vanin-1 enzyme” (Pfizer Inc., priority 2015, dated 2019).
pIC50: −log10 of the molar value.

Columns and labels:
Format in all cases: biochemical
human vanin-1 [1] = biological target: T1, human vanin-1 (Homo sapiens (Human), UniProt O95497); test: Human Vanin-1 Enzyme Assay 2; conditions: 1 nM human vanin-1, 10 uM substrate, 45 min
Protocol: Human Vanin-1 Enzyme Assay 2.
The in vitro assay measures enzymatic cleavage of the fluorescently-labeled vanin substrate, pantetheine 7-amino-4-trifluoromethylcoumarin, by human vanin-1.
The vanin-1 protein was prepared in-house from a construct expressing the extracellular domain of human vanin-1 (GenBank ID NM_004666) preceded N-terminally by the honey bee melittin signal peptide, a GSG linker sequence, a His6X tag and a FLAG tag. The secreted, soluble enzyme was purified from the conditioned medium from a CHO cell line stably expressing the resulting protein. Enzyme purification was performed through sequential Ni NTA and size-exclusion chromatography steps.
On the day of the assay, dose response plates were prepared by diluting the inhibitors in DMSO at compound concentration 100-fold the final in-assay concentration. Concentration series were prepared by serially diluting in DMSO in a half-log series for a total of 11 data points. Intermediate compound plates containing compound in 10% DMSO were then created by diluting the compounds 10-fold in assay buffer consisting of 50 mM Tris-HCl pH=8.0, 50 mM KCl, 0.005% Brij-35 and 1.5 mM cysteamine. To begin the assay 3 μL were transferred from the intermediate compound plate to the assay plate.
A working solution of human vanin-1 was prepared by diluting the enzyme stock to 1.25 nM in assay buffer. Next, 24 μL of the vanin-1 working solution were transferred to the assay plate. The enzyme reaction was then initiated by the addition of 3 μL of 100 μM pantetheine 7-amino-4-trifluoromethylcoumarin prepared in assay buffer. The final concentrations in the assay were 1 nM human vanin-1 and 10 uM substrate. The final concentration of DMSO was 1%. The assay plates were incubated for 45 minutes and before they were read on a Spectramax M5 using a 405 nm excitation wavelength and a 505 nm emission wavelength for detection.

human vanin-1 [2] = biological target: T1, human vanin-1; test: Human Vanin-1 Enzyme Assay 3; conditions: 2 nM human vanin-1, 10 uM substrate, 15 min
In short: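 His/FLAG-tagged extracellular domain of human vanin-1 from CHO cells, used at 2 nM final, with 10 uM pantetheine-AFC substrate. Buffer: 50 mM Tris-HCl pH 8.0, 50 mM KCl, 0.005% Brij-35, 1.5 mM cysteamine, 1% DMSO. 15 min at room temperature; fluorescence read at 405/505 nm across an 11-point 2-fold dilution series.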

human vanin-1 [3] = biological target: T1, human vanin-1; test: Human Vanin-1 Enzyme Assay 1; conditions: 25 pM human vanin-1, 50 uM pantetheine 7-amino-4-trifluoromethylcoumarin, 30 min preincubation, 60 min
In short: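 Purified His6/FLAG-tagged extracellular domain of human vanin-1, secreted from CHO cells, at 25 pM final in 50 mM Tris-HCl pH 8.0, 50 mM KCl, 0.005% Brij-35, 1.6 mM cysteamine, 0.5% DMSO. Inhibitor preincubated 30 min at room temperature; 50 uM pantetheine-AFC substrate, 60 min, fluorescence at 405/510 nm; 11-point four-fold dilution series.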

T1 sequence (O95497 22-491): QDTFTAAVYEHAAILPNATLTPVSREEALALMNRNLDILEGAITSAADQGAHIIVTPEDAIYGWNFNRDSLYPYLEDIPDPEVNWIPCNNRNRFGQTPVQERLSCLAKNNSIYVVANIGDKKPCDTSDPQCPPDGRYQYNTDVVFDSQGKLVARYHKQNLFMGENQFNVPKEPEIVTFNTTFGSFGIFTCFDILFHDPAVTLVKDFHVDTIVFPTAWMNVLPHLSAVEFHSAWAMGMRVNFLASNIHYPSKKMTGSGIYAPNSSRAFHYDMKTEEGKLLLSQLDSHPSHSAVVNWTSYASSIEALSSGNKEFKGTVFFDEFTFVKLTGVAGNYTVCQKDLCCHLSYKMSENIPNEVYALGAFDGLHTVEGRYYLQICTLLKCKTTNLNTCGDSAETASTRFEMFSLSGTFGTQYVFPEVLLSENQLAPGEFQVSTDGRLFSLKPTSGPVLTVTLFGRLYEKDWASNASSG

SMILES	pIC50 (human vanin-1 [1])	pIC50 (human vanin-1 [2])	pIC50 (human vanin-1 [3])
CC(C)(Nc1ncc(C(=O)c2ccccc2)cn1)c1ccccc1 [Example 110, phenyl{2-[(2-phenylpropan-2-yl)amino]pyrimidin-5-yl}methanone]	6.62	7.20	6.37
N#Cc1cccc(CNc2ncc(C(=O)c3ccccc3)cn2)c1 [Example 113, 3-{[(5-benzoylpyrimidin-2-yl)amino]methyl} benzonitrile]	6.48	6.59	6.06
Cc1ccc2cc(C(=O)c3cnc(NCc4cccnc4)nc3)ccc2n1 [Example 104, (2-methylquinolin-6-yl){2-[(pyridin-3-ylmethyl)amino]pyrimidin-5-yl}methanone]	6.93	6.70	6.71
N#Cc1cccc(C(=O)c2cnc(NCc3ccccc3)nc2)c1 [Example 27, 3-{[2-(benzylamino)pyrimidin-5-yl]carbonyl} benzonitrile]	7.39	7.28	7.10
O=C(c1cnc(NCc2ccccc2)nc1)c1cccc(Cl)c1 [Example 24, [2-(benzylamino)pyrimidin-5-yl](3-chlorophenyl) methanone]	6.50	6.56	5.91
CS(=O)(=O)c1cccc(C(=O)c2cnc(NCc3ccc(C#N)cc3)nc2)c1 [Example 126, 4-[({5-[3-(methylsulfonyl)benzoyl]pyrimidin-2-yl}amino)methyl] benzonitrile]	7.36	7.39	7.55
N#Cc1cccc(C(=O)c2cnc(NCc3cnccn3)nc2)c1 [Example 117, 3-({2-[(pyrazin-2-ylmethyl)amino]pyrimidin-5-yl}carbonyl) benzonitrile]	7.50	7.74	7.30
N#Cc1cccc(C(=O)c2cnc(NCc3ccnnc3)nc2)c1 [Example 112, 3-({2-[(pyridazin-4-ylmethyl)amino]pyrimidin-5-yl}carbonyl) benzonitrile]	6.07	5.73	5.25
CC(C)(Nc1ncc(C(=O)c2cccc(Cl)c2)cn1)c1ccccc1 [Example 25, (3-chlorophenyl){2-[(2-phenylpropan-2-yl)amino]pyrimidin-5-yl}methanone]	7.19	7.94	7.13
O=C(c1cccc(C(F)(F)F)c1)c1ccc(NCc2cccnc2)nn1 [Example 91, {6-[(pyridin-3-ylmethyl)amino]pyridazin-3-yl}[3-(trifluoromethyl)phenyl]methanone]	6.11	7.04	6.10
Cc1ccc(CNc2ncc(C(=O)c3cccc(C(F)(F)F)c3)cn2)cn1 [Example 73, (2-{[(6-methylpyridin-3-yl)methyl]amino}pyrimidin-5-yl)[3-(trifluoromethyl)phenyl]methanone]	7.97	8.92	8.77
CC(C)(Nc1ncc(C(=O)c2cccc(C#N)c2)cn1)c1ccccc1 [Example 3, 3-({2-[(2-phenylpropan-2-yl)amino]pyrimidin-5-yl}carbonyl)benzonitrile]	7.82	7.12	7.87
O=C(c1ccccc1)c1cnc(NCc2cccnn2)nc1 [Example 115, phenyl{2-[(pyridazin-3-ylmethyl)amino]pyrimidin-5-yl}methanone]	5.82	6.09	5.85
O=C(c1ccccc1)c1cnc(NC2(c3cccnc3)CC2)nc1 [Example 114, phenyl(2-{[1-(pyridin-3-yl)cyclopropyl]amino}pyrimidin-5-yl)methanone]	6.59	6.77	6.42
Cc1cccc(C(=O)c2cnc(NCc3ccccn3)nc2)c1 [Example 38, (3-methylphenyl){2-[(pyridin-2-ylmethyl)amino]pyrimidin-5-yl}methanone]	6.06	6.13	6.07
NC(=O)c1ccc(CNc2ncc(C(=O)c3cccc(C(F)(F)F)c3)cn2)cc1 [Example 33, 4-[({5-[3-(trifluoromethyl)benzoyl]pyrimidin-2-yl}amino)methyl] benzamide]	7.25	6.69	8.14
N#Cc1cccc(C(=O)c2cnc(NCc3ccccc3Cl)nc2)c1 [Example 32, 3-({2-[(2-chlorobenzyl)amino]pyrimidin-5-yl}carbonyl) benzonitrile]	7.15	7.84	7.02
COc1ccc(C(=O)c2cnc(NCc3ccc(C(N)=O)cc3)nc2)cc1 [Example 59, 4-({[5-(4-methoxybenzoyl)pyrimidin-2-yl]amino}methyl) benzamide]	6.20	6.72	5.64
NC(=O)c1cccc(CNc2ncc(C(=O)c3cccc(Cl)c3)cn2)c1 [Example 48, 3-({[5-(3-chlorobenzoyl)pyrimidin-2-yl]amino}methyl) benzamide]	6.45	6.40	6.66
NC(=O)c1ccc(CNc2ncc(C(=O)c3ccc(F)c(C(F)(F)F)c3)cn2)cc1 [Example 87, 4-[({5-[4-fluoro-3-(trifluoromethyl)benzoyl]pyrimidin-2-yl}amino)methyl] benzamide]	7.34	7.59	7.17
CC(C)(Nc1ncc(C(=O)c2ccc3c(c2)OCCO3)cn1)c1ccccc1 [Example 124, 2,3-dihydro-1,4-benzodioxin-6-yl{2-[(2-phenylpropan-2-yl)amino]pyrimidin-5-yl}methanone]	6.10	6.65	6.28
Cc1cccc(C(=O)c2cnc(NCc3ccccc3)nc2)c1 [Example 40, [2-(benzylamino)pyrimidin-5-yl](3-methylphenyl) methanone]	6.77	6.27	5.76
O=C(c1ccccc1)c1cnc(NC2(c3ccccc3)CC2)nc1 [Example 111, phenyl{2-[(1-phenylcyclopropyl)amino]pyrimidin-5-yl}methanone]	6.69	6.74	6.44
Cc1cccc(C(=O)c2cnc(NCc3cccnc3)nc2)c1 [Example 14, (3-methylphenyl){2-[(pyridin-3-ylmethyl)amino]pyrimidin-5-yl}methanone]	7.50	> 7.89	7.32
NC(=O)c1ccc(CNc2ncc(C(=O)c3cc(F)cc(C(F)(F)F)c3)cn2)cc1 [Example 95, 4-[({5-[3-fluoro-5-(trifluoromethyl)benzoyl]pyrimidin-2-yl}amino)methyl] benzamide]	6.62	6.78	7.04
O=C(c1cnc(NCc2cccnc2)nc1)c1cc(F)cc(C(F)(F)F)c1 [Example 128, [3-fluoro-5-(trifluoromethyl)phenyl]{2-[(pyridin-3-ylmethyl)amino]pyrimidin-5-yl}methanone]	7.41	7.36	7.42
N#Cc1cccc(C(=O)c2cnc(NCc3ccc(C(N)=O)cc3)nc2)c1 [Example 68, 4-({[5-(3-cyanobenzoyl)pyrimidin-2-yl]amino}methyl) benzamide]	7.14	7.10	6.97
